Entries after “also recorded” stand apart in the source; their conditions may differ.
How the values were obtained:
[1] = test system: human glioblastoma cells; test: Induction of apoptosis in human glioblastoma cells (FIG. 19); type: cell-based
Excerpt: In the figure, DMC stands for 4-[5-(2,5-dimethylphenyl)-3-(trifluoromethyl)-1H-pyrazol-1-yl]benzenesulfonamide; DBrC stands for 4-[5-(2,5-dibromophenyl)-3-(trifluoromethyl)-1H-pyrazol-1-yl]benzenesulfonamide; and DTF3C stands for 4-[5-(2,5-ditrifluoromethylphenyl)-3-(trifluoromethyl)-1H-pyrazol-1-yl]benzenesulfonamide.

[2] = test system: cytoplasmic calcium levels in U251 cells; test: Cytoplasmic calcium imaging (Fura-2/AM); type: cell-based, human; details: 100 μmol/L of each drug, Fura-2/AM loaded cells
Method: (A) U251 cells were treated with DMC or various coxibs and NSAIDs, and changes in intracellular calcium levels were recorded as described in Materials & Methods. […] Arrows indicate timepoint of drug addition. […] Essentially similar results were also obtained with the LN229 cell line.
The cells were loaded by incubating them with […] Fura-2/AM (Invitrogen) for 30 min at room temperature in external solution containing 138 mmol/L NaCl, 5.6 mmol/L KCl, 1.2 mmol/L MgCl2, 2.6 mmol/L CaCl2, 10 mmol/L HEPES, and 4 mmol/L glucose (pH 7.4). After loading, the cells were rinsed and transferred to the imaging setup. The cells were treated with individual drugs for 10 s, whereas fluorescence was elicited with the excitation wavelength alternating between 350 and 380 nm, using a Polychromator V (TILL Photonics GmbH, Grafelfing, Germany) to provide illumination via a Zeiss Axiovert 100 microscope with a Zeiss Fluar 40 oil objective (Carl Zeiss, Jena, Germany). Images were captured using a Cascade 512B CCD camera (Photometrics, Tucson, Ariz.) controlled with MetaFluor software (Molecular Devices, Sunnyvale, Calif.) at 0.5 Hz acquisition frequency. Ratios of the images obtained at 350 and 380 nm excitation were used to show changes in the cytoplasmic calcium concentration, according to the principles developed by Grynkiewicz et al. (31).

[3] = test system: U251 glioblastoma cells; test: MTT assay, U251; type: cell-based, human; details: U251, 48 hours, concentrations of up to 100 μmol/L
Method: U251 glioblastoma cells were treated with different drugs, and various parameters of cell growth and cell death were comparatively analyzed. As controls, cells remained either non-treated (Co) or were treated with the solvent DMSO alone. (FIG. 8A) Cells were treated with 30 or 50 μM DMC for 48 hours and the effects on cell growth/survival and on cell death were determined by various assays. […] Below the three panels, the expression levels of the ER stress indicators CHOP, GRP78, and caspase 4 at the end of the 48 hour drug treatment is shown, as determined by Western blot analysis with specific antibodies (actin served as a loading control. (FIG. 8B) Cells were treated with various concentrations of different drugs for 48 hours, as indicated, and cell death was measured with the cell death ELISA kit. (FIG. 8C) Cells were treated with DMC or various coxibs and traditional NSAIDs for 48 hours, as indicated, and cell growth and survival was determined with the conventional MTT assay (control, non-treated cells were set at 100%). MTT assays were performed in 96-well plates with the use of 3.0-8.0×10^3 cells per well as described in detail elsewhere (34). In parallel, the expression levels of CHOP and GRP78 protein were determined by Western blot analysis. […]
3-(4,5-Dimethylthiazol-2-yl)-2,5-diphenyltetrazolium bromide (MTT) assays were performed in 96-well plates with the use of 3.0×10^3 to 8.0×10^3 cells per well as described in detail elsewhere (19).

[4] = test system: U251 glioblastoma cells; test: Cell death ELISA, U251; type: cell-based, human; details: U251, 48 hours, concentrations of up to 100 μmol/L
Method: U251 glioblastoma cells were treated with different drugs, and various parameters of cell growth and cell death were comparatively analyzed. As controls, cells remained either non-treated (Co) or were treated with the solvent DMSO alone. (FIG. 8A) Cells were treated with 30 or 50 μM DMC for 48 hours and the effects on cell growth/survival and on cell death were determined by various assays. […] Below the three panels, the expression levels of the ER stress indicators CHOP, GRP78, and caspase 4 at the end of the 48 hour drug treatment is shown, as determined by Western blot analysis with specific antibodies (actin served as a loading control. (FIG. 8B) Cells were treated with various concentrations of different drugs for 48 hours, as indicated, and cell death was measured with the cell death ELISA kit. (FIG. 8C) Cells were treated with DMC or various coxibs and traditional NSAIDs for 48 hours, as indicated, and cell growth and survival was determined with the conventional MTT assay (control, non-treated cells were set at 100%). MTT assays were performed in 96-well plates with the use of 3.0-8.0×10^3 cells per well as described in detail elsewhere (34). In parallel, the expression levels of CHOP and GRP78 protein were determined by Western blot analysis.
Apoptosis in cell cultures in vitro was determined by using the Cell Death Detection ELISA kit (Roche Diagnostics, Indianapolis, Ind.) according to the manufacturer's instructions. This immunoassay specifically detects the histone region (H1, H2A, H2B, H3, and H4) of mononucleosomes and oligonucleosomes that are released during apoptosis. Ninety-six-well plates were seeded with 1,000 cells per well and read at 405 nm in a Microplate Autoreader (Model EL 311 SX; Bio-Tek Instruments, Inc., Winooski, Vt.).

[5] = test system: CHOP, GRP78, caspase 4 in U251 glioblastoma cells; test: Western blot of ER stress indicators in U251 cells; type: cell-based, human; details: for CHOP expression, time kinetics: U251, 50 μmol/L, 4 h up to 24 h; for increase in CHOP or GRP78 protein, concentration dependence: U251, 15 hours, concentrations up to 75 or 100 μmol/L
Method: U251 glioblastoma cells were cultured in the presence of 1 μM thapsigargin (Tg) or 60 μM DMC for various times, as indicated. Total cell lysates were prepared and analyzed by Western blot with specific antibodies to the ER stress proteins GRP78, CHOP, and caspase 4 (Casp 4). Actin was used as a loading control.
Shown are (A) time kinetics at 50 μM of each drug, and (B) concentration dependence after 15 hours of incubation.
Shown are (FIG. 7A) time kinetics at 50 μM of each drug, and (FIG. 7B), concentration dependence after 15 hours of incubation.
U251 glioblastoma cells were cultured for 24 hours in the presence of increasing concentrations of (A) bortezomib (BZM) or (B) DMC. Total cell lysates were analyzed by Western blot with specific antibodies to ubiquitin, GRP78, CHOP, and caspase 4. Actin was used as a loading control.
Total cell lysates were prepared by lysis of cells with radioimmunoprecipitation assay buffer (28), and protein concentrations were determined using the bicinchoninic acid protein assay reagent (Pierce, Rockford, Ill.). For Western blot analysis, 50 Ag of each sample were processed as described (29). The primary antibodies were purchased from Cell Signaling Technologies (Beverly, Mass.), Cayman Chemical (Ann Arbor, Mich.), or Santa Cruz Biotechnology, Inc. (Santa Cruz, Calif.) and used according to the manufacturer's recommendations. The secondary antibodies were coupled to horseradish peroxidase and detected by chemiluminescence using the SuperSignal West substrate from Pierce. All immunoblots were repeated at least once to confirm the results.
Total cell lysates were prepared and analyzed by Western blot analysis as described earlier (19). Immunohistochemical analysis of protein expression in tumor tissues was performed with the use of the Vectastain avidin-biotin complex method kit (Vector Laboratories) as described previously (32). The primary antibodies were purchased from Cell Signaling Technology or Santa Cruz Biotechnology, Inc. and used according to the manufacturers' recommendations. All immunoblots and stainings were repeated at least once to confirm the results.

[6] = test system: CHOP protein in U87 glioblastoma tumor tissue; test: Immunohistochemical staining for CHOP in xenograft tumor tissue; type: in vivo, nude mice; details: U87 xenograft
Excerpt: In all cases, representative sections are shown.
Immunohistochemical analysis of protein expression in tumor tissues was done with the use of the Vectastain avidin-biotin complex method kit (Vector Laboratories, Burlingame, Calif.) according to the manufacturer's instructions. This procedure uses biotinylated secondary antibodies and a preformed avidin: biotinylated enzyme complex that has been termed the avidin-biotin complex method technique. As the primary antibody, we used anti-CHOP antibody (Santa Cruz Biotechnology) diluted 1:100 in 2% normal goat blocking serum.

[7] = test system: U87 glioblastoma tumors; test: Tumor growth in xenograft nude mouse model; type: in vivo, nude mice; details: daily chow for DMC, 40 mg/kg for rofecoxib, n=5
Method: Once palpable tumors had formed, the animals received daily chow supplemented with DMC, rofecoxib, or no drug. Tumor size was determined every three days. Shown is the average (mean±SD) tumor volume in each group (n=5). Asterisks (**): p<0.01 between control and DMC-treated animals on day 42.

[8] = test system: U87 glioblastoma tumors; test: TUNEL assay of xenograft tumor tissue; details: U87 xenograft, short-term drug treatment
[9] = test system: Tumor-associated Brain Endothelial Cells (TuBEC); test: Trypan blue exclusion, tumor-associated brain endothelial cells; type: cell-based
Method: After drug treatment the cells were incubated for another 12 days in the absence of drug, in order to determine their long-term survival; at that time cytotoxicity was evaluated using the trypan blue exclusion technique. Results are presented as number of viable cells per group.
Tumor-associated Brain Endothelial Cells (TuBEC) were treated with TMZ (300 uM) and 20 uM DMC for 48 hours. The drugs were removed and cells were incubated for another 12 days; at that time cytotoxicity was evaluated using the trypan blue exclusion technique. Results are presented as number of viable cells per group.

Row | SMILES | elevation of cytoplasmic calcium levels [2] | detectable effect on cell growth and survival (MTT) [3] | induction of cell death/apoptosis (cell death ELISA) [4] | further results
1 | NS(=O)(=O)c1ccc(-n2nc(C(F)(F)F)cc2-c2cc(Br)ccc2Br)cc1 [DBrC, 4-[5-(2,5-dibromophenyl)-3-(trifluoromethyl)-1H-pyrazol-1-yl]benzenesulfonamide] | – | – | – | relative ability to induce apoptosis / cell killing effect compared to DMC [1]: surprisingly potent cell killing effect
2 | COc1ccc2c(c1)c(CC(=O)O)c(C)n2C(=O)c1ccc(Cl)cc1 [indomethacin] | none | none | did not induce apoptosis | –
3 | CS(=O)(=O)c1ccc(C2=C(c3ccccc3)C(=O)OC2)cc1 [rofecoxib, 4-(4′-methylsulfonylphenyl)-3-phenyl-2-(5H)-furanone] | none | none | did not induce apoptosis | CHOP expression, time kinetics [5]: neither rofecoxib nor valdecoxib at the same concentration resulted in any detectable CHOP expression; increase in CHOP or GRP78 protein, concentration dependence [5]: neither rofecoxib nor valdecoxib was able to stimulate any detectable increase; CHOP staining of tumor tissues ([6]; 30-180 mg/kg per day for 50 h, DMC and celecoxib already at lowest dosages): consistently negative; CHOP protein expression in tumor tissue ([6]; animals fed drug for 50 h): no such increase was observed; tumor growth on longer-term therapy [7]: not; apoptosis in the tumor tissue [8]: did not display elevated levels of apoptosis
4 | C/C=C(/C)C(=O)O[C@H]1C(C)=C2[C@H]([C@@H]1OC(=O)CCCCCCC)[C@@](C)(OC(C)=O)C[C@H](OC(=O)CCC)[C@@]1(O)[C@H]2OC(=O)[C@@]1(C)O [thapsigargin] | – | – | – | time at which activation (cleavage) of caspase-4 was first noted ([5]; U251, 1 μM thapsigargin or 60 μM DMC): ~24 h; CHOP and GRP78 expression levels ([5]; U251, 1 μM thapsigargin or 60 μM DMC, prominent increase at 6 h and thereafter): substantially elevated
5 | Cn1nnc2c(C(N)=O)ncn2c1=O [Temozolomide] | – | – | – | cytotoxicity on tumor-associated brain endothelial cells [9]: little cytotoxicity
6 | CC(C(=O)O)c1ccc(-c2ccccc2)c(F)c1 (stereo not shown) [flurbiprofen] | none | none | did not induce apoptosis | –
7 | Cc1onc(-c2ccccc2)c1-c1ccc(S(N)(=O)=O)cc1 [valdecoxib, 4-[5-Methyl-3-phenylisoxazol-4-yl]-benzenesulfonamide] | none | none | did not induce apoptosis | CHOP expression, time kinetics [5]: neither rofecoxib nor valdecoxib at the same concentration resulted in any detectable CHOP expression; increase in CHOP or GRP78 protein, concentration dependence [5]: neither rofecoxib nor valdecoxib was able to stimulate any detectable increase
8 | CC1=C(CC(=O)O)c2cc(F)ccc2/C1=C\c1ccc([S+](C)[O-])cc1 (stereo not shown) [sulindac] | none | none | did not induce apoptosis | –
9 | NS(=O)(=O)c1ccc(-n2nc(C(F)(F)F)cc2-c2cc(C(F)(F)F)ccc2C(F)(F)F)cc1 [DTF3C, 4-[5-(2,5-ditrifluoromethylphenyl)-3-(trifluoromethyl)-1H-pyrazol-1-yl]benzenesulfonamide] | – | – | – | relative ability to induce apoptosis / cell killing effect compared to DMC [1]: surprisingly potent cell killing effect; also recorded: most potent compound

— US9486461B2, “Methods and compositions for inducing apoptosis by stimulating ER stress” (UNIVERSITY OF SOUTHERN CALIFORNIA, priority 2007, dated 2016)
